PubChem BioAssay (NCI)
Where “and” joins values, the source holds several entries; their conditions need not be identical. Equal entries are not always repeated.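 Results reflect a 48-hour exposure of cells in 96-well plates to compound at five concentrations. GI50 = concentration required for 50% inhibition of growth. TGI denotes the concentration required for complete inhibition of growth.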

Assays:
Experiment in all cases: NCI tumour cell line growth inhibition, 48 h
[1] = test system: COLO 205 colon
[2] = test system: DU-145 prostate
[3] = test system: HCC-2998 colon
[4] = test system: HCT-116 colon
[5] = test system: MDA-MB-435
[6] = test system: NCI-H460 lung
[7] = test system: NCI/ADR-RES ovarian
[8] = test system: OVCAR-8 ovarian
[9] = test system: SF-268 CNS
[10] = test system: SF-295 CNS
[11] = test system: SK-MEL-2 melanoma
[12] = test system: SW-620 colon
[13] = test system: IGROV1 ovarian

SMILES	TGI [1]	TGI [2]	TGI [3]	TGI [4]	TGI [5]	TGI [6]	TGI [7]	TGI [8]	TGI [9]	TGI [10]	TGI [11]	TGI [12]	TGI [13]	GI50 [3]	GI50 [13]	GI50 [8]	GI50 [10]	GI50 [11]	GI50 [12]
O=[N+]([O-])C(=C/c1cccs1)/C(=C\c1cccs1)[N+](=O)[O-]	2.93 µM	3.53 µM	2.58 µM	2.49 µM	2.23 µM	5.31 µM	5.4 µM	8.06 µM	10.4 µM	4.92 µM	6.46 µM	21.2 µM							
CC(=O)Nc1ccc(Sc2nnc(NC(C)=O)s2)cc1	> 100 µM		> 100 µM	> 100 µM	> 100 µM	> 100 µM	> 100 µM	> 100 µM	> 100 µM	> 100 µM		> 100 µM	> 100 µM						
C=CCCCCCCCCC(=O)O	197 µM		202 µM	225 µM		191 µM	558 µM	283 µM	254 µM	200 µM	152 µM	260 µM	287 µM						
CCOC(=O)C(OP(=O)(OCC)OCC)C(F)(F)F (stereo not drawn)		> 100 µM	> 100 µM	> 100 µM	> 100 µM	> 100 µM			> 100 µM		> 100 µM								
CCN1CCC(O)(c2ccc(O)cc2)C(C(=O)c2ccc(O)cc2)C1 (stereo not drawn)	37.9 µM	60 µM		54.9 µM	33.3 µM	> 100 µM	71 µM	> 100 µM	> 100 µM	> 100 µM		12.3 µM	44 µM						
COc1cccc2c1C(=O)c1c(O)c3c(c(O)c1C2=O)C[C@@](O)(C(=O)CO)CC3OC1CC(NCCCC(OC(C)=O)OC(C)=O)C(O)C(C)O1 (stereo partly drawn)			0.00593 µM and 0.00191 µM					0.0119 µM		0.000645 µM		> 1 µM	> 1 µM	0.000324 µM	0.000754 µM	< 0.0001 µM	< 0.0001 µM	< 0.0001 µM	< 0.0001 µM
